Assay results taken from publication PMC11547375, “Peptide Dimerization as a Strategy for the Development of Antileishmanial Compounds” (Molecules, 2024).
Like-named read-outs stand apart in the source and are kept apart here. No end group written: not given here.

Experiments:
L. mexicana amastigotes = test: microbe, parasite or virus in culture; format: cell-based, Leishmania mexicana; conditions: ± standard deviation, SD
Protocol: (§1) Macrophages were sourced from the peritoneal cavity of Swiss mice using the methodology outlined by de Almeida et al.. Anti-promastigote and anti-amastigote assays of L. mexicana and L. amazonensis and their cytotoxic activity were conducted as previously described. […] Cytotoxicity for the host cells and the protozoan species was compared and expressed as the selectivity index (SI), calculated as the ratio of the CC50 for macrophages to the IC50 for the protozoan species.

[1] = test system: L. amazonensis promastigotes; test: microbe, parasite or virus in culture; format: cell-based, Leishmania amazonensis; conditions: read-out: IC50 Promastigote
Protocol: (§2) The L. amazonensis promastigotes (MPRO/BR/1972/M1841-LV-79) were grown in LIT culture medium, while the L. mexicana promastigotes (MNYC/BZ/62/M379) were cultivated in Schneider’s medium (Sigma-Aldrich, St. Louis, MO, USA), supplemented with 10% heat-inactivated fetal bovine serum (FBS; Gibco/Invitrogen, Waltham, MA, USA) at 28 °C until reaching the mid-log phase of growth. Macrophages were sourced from the peritoneal cavity of Swiss mice using the methodology outlined by de Almeida et al.. Anti-promastigote and anti-amastigote assays of L. mexicana and L. amazonensis and their cytotoxic activity were conducted as previously described. IC50 is the concentration capable of killing 50% of the parasites. The drug concentration that inhibited 50% of cell growth was denoted as the 50% cytotoxic concentration (CC50). Cytotoxicity for the host cells and the protozoan species was compared and expressed as the selectivity index (SI), calculated as the ratio of the CC50 for macrophages to the IC50 for the protozoan species.

[2] = test system: L. amazonensis amastigotes; test: microbe, parasite or virus in culture; format: cell-based, Leishmania amazonensis; conditions: read-out: IC50 Amastigote
Protocol: as §1

LmCPB2.8ΔCTE (CPB) = LmCPB2.8ΔCTE (CPB) (Leishmania mexicana, UniProt P36400); test: Cysteine protease (CPB) enzyme inhibition assay; format: biochemical
Sequence of LmCPB2.8ΔCTE (CPB) (P36400 126-343, stated change not applied): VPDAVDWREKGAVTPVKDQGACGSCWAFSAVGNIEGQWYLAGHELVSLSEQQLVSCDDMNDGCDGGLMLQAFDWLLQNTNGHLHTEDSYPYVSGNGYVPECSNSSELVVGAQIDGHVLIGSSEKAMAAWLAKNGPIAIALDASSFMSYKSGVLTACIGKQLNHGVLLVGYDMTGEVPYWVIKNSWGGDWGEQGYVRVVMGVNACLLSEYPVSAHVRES
Protocol: The CPB inhibition experiments were performed as described previously by Moreira et al.. The results are expressed as mean ± standard deviation of two independent replicates as the half maximal CPB enzyme inhibitory concentration (IC50-CPB) using Bioestat 5.0 software.

[3] = test system: L. amazonensis promastigotes; conditions: read-out: IC50 Promastigote with active fetal bovine serum, LIT medium with active (not heat-inactivated) fetal bovine serum, ± standard deviation, SD
Protocol: Therefore, stability studies were carried out with these molecules in the presence of the Leishmania parasite in its promastigote form, with active fetal bovine serum added to the culture medium. […] Assays were performed using the TSHa and (TSHa)2K peptides.
Peptide stability was investigated using anti-promastigote assays (as described by Costa et al. 2023 [58]) with L. amazonensis and LIT culture media with fetal bovine serum.

[4] = test system: L. mexicana promastigotes; test: microbe, parasite or virus in culture; format: cell-based, Leishmania mexicana; conditions: ± standard deviation, SD, read-out: IC50 Promastigote
Protocol: as §2

[5] = POPC–POPS–Erg (16:3:1) LUVs
Protocol: To evaluate the effect of monomeric and dimeric peptides on the lipid membrane and relate it to the mechanism of action, vesicle permeabilization studies were carried out for evaluating the possible mechanisms on membrane. The leakage assays were carried out with carboxyfluorescein (CF) internalized in the mimetic membranes. The vesicles of POPC–Chol (4:1) and POPC–POPS (phosphatidylserine)–ergosterol (16:3:1) were employed. These mimetic membranes were designed considering the compositions of phospholipids and steroids in the host membrane and in the Leishmania membrane, respectively. The constitution of the cell membrane of Leishmania varies according to the morphology of the parasite and its stage of development, but is more negative than the cell membranes of mammals, which allow for cationic AMPs to bind more easily. Our studies were based on the membrane of the promastigote form, which is characterized by the presence of mainly phosphatidylcholine, phosphatidylethanolamine, phosphatidylinositol, phosphatidylserine, and ergosterol, in addition to diglycerides and glycolipids containing mannose and galactose. In the amastigote form of Leishmania, there is a higher concentration of fatty acids and cholesterol, while triglycerides and ergosterol decrease during the transition from promastigotes to amastigotes. In addition, the main phospholipids found are sphingomyelin and phosphatidylserine, with lower proportions of phosphatidylinositol and lysophosphatidylethanolamine.
Large unilamellar vesicles (LUVs) composed of POPC (1-palmitoyl-2-oleoyl-sn-glycero-3-phosphatidylcholine) and cholesterol (Chol) (4:1), or POPC, POPS (1-palmitoyl-2-oleoyl-sn-glycero-3-serine), and ergosterol (Erg) (16:3:1) were prepared according to the methods described by Lorenzón et al.. […] We employed a Hitachi U-2000 spectrophotometer (TSHa) (Hitachi, Tokyo, Japan) or a Fluorolog-3 FL3-122 spectrofluorometer (Horiba Jobin Yvon, Glasgow, UK) ((TSHa)2K) for analyses.

peritoneal macrophages = test: Cytotoxicity in peritoneal macrophages; format: cell-based; conditions: peritoneal macrophages of Swiss mice
Protocol: as §2

FLSGIVGMLGKLF-NH2 [TSHa]
IC50 (L. mexicana amastigotes; 24 h of treatment, read-out: IC50 Amastigote 24 h of Treatment): 5 ± 0.05 µM | IC50 (L. mexicana amastigotes; 48 h of treatment, read-out: IC50 Amastigote 48 h of Treatment): 8.1 ± 0.45 µM | IC50 [1]: 8 ± 0.1 µM | IC50 [2]: 6.8 ± 2.82 µM | Inhibitory Activity at 20 μmol L^−1 (LmCPB2.8ΔCTE (CPB); 20 μmol L^−1, mean ± SD of two independent replicates, SD): 94.22 ± 1.54 % | inhibition at 20 µM (LmCPB2.8ΔCTE (CPB); 20 μmol L^−1, mean ± SD of two independent replicates, read-out: Inhibitory Activity at 20 μmol L^−1): > 90% | IC50 (LmCPB2.8ΔCTE (CPB); mean ± SD of two independent replicates, SD): 9.2 ± 2.2 µM | IC50 [3]: 20 ± 2.15 µM | IC50 [4]: 6.3 ± 0.85 µM | CF release ([5]; peptide 1 µmol L^−1, fluorescence): around 70% | CF release ([5]; peptide 5 µmol L^−1, fluorescence): ~85% | CC50 Peritoneal Macrophages (peritoneal macrophages; Table 1, ± standard deviation, SD): >1000 ± 0.01 µM | CC50 Peritoneal Macrophage (peritoneal macrophages; Table 2): >1000 ± 1.8 µM
